The results in this text go back to patent US11446299B2, “Carbazole EHop-016 derivatives as anticancer and anti-migratory agents” (UNIVERSITY OF PUERTO RICO, priority 2017, dated 2022).

“Also recorded” adds a separate entry of the source.

For one series, the system named is Akt. Nature of the series: Akt phosphorylation by western blot. The class given is cell-based, human. The settings on record: 24 h. The method, then:
FIG. 16 (A-D). Inhibition of pAKT by HV-107 and HV-118. FIG. 16 A, C. MDA-MB-231 and FIG. 16 B, D. MDA-MB-435 human metastatic breast cancer cells were treated for 24 h with 0, 250, 500 or 1000 nM HV-107, 100 or 200 nM HV-118. After treatment, total protein was extracted, and equal amounts of proteins were western blotted for total and phosphorylated Akt (pAkt). Positive bands were quantified using image J. N=4-6; error bars represent t SEM; * p≤0.05.
(§1) Subsequently, the effects of HV-107 and HV-118 were evaluated in cell survival and cell migration, known Rac-regulated cell functions relevant for cancer progression. The effects of HV-107 and HV-118 on cancer cell survival were determined by measuring the levels of active caspase 3 in MDA-MB-231 and MDA-MB-435 metastatic breast cancer cells after treatment with HV-107 at 500 and 1000 nM, or HV-118 at 100 and 200 nM for 48-72 h. After 48 h, HV-107 caused a significant 1.4-1.5 fold increase in caspase 3 activity in MDA-MB-231 (at 500 and 1000 nM) and MDA-MB-435 (at 1000 nM) cells. […] The effects of both compounds were also examined in the activity of Akt, an important kinase that promotes survival signaling, is frequently hyperactivated in malignant cancers, and can be regulated by Rac. Because Akt is activated by phosphorylation events, the effects of HV-107 and HV-118 were analyzed in Akt phosphorylation by western blot (FIG. 16 (A-D)).

For another series, the system named is caspase 3. The series can be described thus: Caspase-Glo 3/7 assay. The class given is cell-based, human. The method, then: FIG. 15 (A-D). Effect of HV-107 and HV-118 on Caspase 3/7 activity. FIG. 15 A, C. MDA-MB-231 and FIG. 15 B, D. MDA-MB-435 human metastatic breast cancer cells were treated for 48 or 72 h with 0, 500 or 1000 nM HV-107, 100 or 200 nM HV-118. Caspase 3/7 activity was measured using the Caspase-Glo 3/7 Assay (Promega, Corp.) as per manufacturer's instruction. N=4: error bars represent ±SEM; * p≤0.05.
as §1

Series [1] relates to non-cancerous mammary epithelial cells MCF10A. The series can be described thus: Cell viability, CellTiter 96 AQueous One Solution Cell Proliferation Assay. The class given is cell-based, human. The following applies: for toxicity / effect on viability of non-cancerous mammary epithelial cells, in words: MCF10A, at the concentrations tested. The protocol: (§2) FIG. 7. Effect of HV-107 on cell viability. Cells were treated with vehicle control (0.5% DMSO) or varying concentrations of HV-107 (250-6000 nM) for 48 h. Cell viability was measured using the CellTiter 96® AQueous One Solution Cell Proliferation Assay from Promega, as per manufacturer's instruction. Relative cell viability is presented for non-cancerous mammary epithelial cells (MCF10A) or metastatic breast cancer cells MDA-MB-231 or MDA-MB-435. N=3-4, each with three technical replicates; Error bars represent ±SEM; * p≤0.05.
(§3) FIG. 9. Effect of HV-118 on cell viability. Cells were treated with vehicle control (0.5% DMSO) or varying concentrations of HV-118 (10-500 nM) for 48 h. Cell viability was measured using the CellTiter 96® AQueous One Solution Cell Proliferation Assay from Promega, as per manufacturer's instruction. Relative cell viability is presented for human non-cancerous mammary epithelial cells (MCF10A) or human metastatic breast cancer cells MDA-MB-231 or MDA-MB-435. N=3, each with three technical replicates; error bars represent ±SEM; * p≤0.05.
(§4) Cells were treated with ehicle control (0.5% DMSO) or varying concentrations of HV-107 (250-8000 nM) for 24 or 48 h. Cell viability was measured using the CellTiter 96® AQueous One Solution Cell Proliferation Assay from Promega, as per manufacturer's instruction. Relative cell viability is presented for non-cancerous mammary epithelial cells MCF10A (FIG. 7) or metastatic breast cancer cells MDA-MB-231 or MDA-MB-435. N=3, each with three technical replicates; Error bars represent ±SEM; * p≤0.05.
(§5) Cells were treated with vehicle control (0.5% DMSO) or varying concentrations of HV-118 (10-500 nM) for 48 h. Cell viability was measured using the CellTiter 96® AQueous One Solution Cell Proliferation Assay from Promega, as per manufacturer's instruction. Relative cell viability is presented for human non-cancerous mammary epithelial cells MCF10A (FIG. 9) or human metastatic breast cancer cells MDA-MB-231 or MDA-MB-435. N=3, each with three technical replicates; error bars represent ±SEM; * p≤0.05.

Series [2] relates to MDA-MB-435 metastatic breast cancer cells. The description is as above. The class given is cell-based, human. The following applies: HV-107 24 or 48 h, HV-118 48 h. The method, then: as §2, §3, §4, §5
Series [3] concerns MDA-MB-231 metastatic breast cancer cells. The series is described as above. Format: cell-based, human. The settings on record: HV-107 24 or 48 h, HV-118 48 h. The method, then: as §2, §3, §4, §5
The subject of series [4] is MDA-MB-231 and MDA-MB435 metastatic breast cancer cell lines. Nature of the series: Wound healing assay of HV-107 and HV-118. The settings on record: Homo sapiens, 24 h, read-out: inhibition of cell migration. Format: cell-based. The protocol: FIG. 17 (A-B). Effect of HV-107 and HV-118 on cell migration. Wounds were created on confluent monolayers of MDA-MB-231 or MDA-MB-435 human metastatic breast cancer cells. Immediately after, cells were treated for 24 h with FIG. 17A. 0, 1000, or 2000 nM of HV-107; and FIG. 17B. 0, 100, or 200 nM HV-118. The distance traveled by HV-107 and HV-118 treated cells that migrated to close the wound was quantified relative to the distance traveled by control-treated cells. N=4-7; error bars represent ±SEM; * p≤0.05.
Finally, wound healing assays were performed to assess the effects of HV-107 and HV-118 on metastatic breast cancer cell migration.

As to `CCn1c2ccccc2c2cc(C(=O)Nc3cccnc3N3CCOCC3)ccc21` [Compound 11b, 9-Ethyl-9H-carbazole-3-carboxylic Acid (2-morpholin-4-yl-pyridin-3-yl)-amide], the inhibition at 1 µM in the series on Akt (Homo sapiens, MDA-MB-435, 1000 nM) worked out at 25%. In addition, in the series on Akt (MDA-MB-231, 250-1000 nM), the “inhibition of Akt phosphorylation” value is given as 50-60%. Also, the “fold increase in caspase 3 activity” value is recorded as 1.4-1.5 fold with caspase 3 (MDA-MB-231, 48 h, 500 and 1000 nM); 1.4-1.5 fold with caspase 3 (MDA-MB-435, 48 h, 1000 nM). The “toxicity / effect on viability of non-cancerous mammary epithelial cells, in words” value in series [1] (listed as HV-107) is on record as “minimal toxicity; also recorded: minimal or no inhibition”. Moreover, the “toxicity to non-cancerous mammary epithelial cells, in words” value in series [1] (at concentrations ≥1 μM) is on record as “not toxic”. The “concentration at which viability is significantly inhibited” value in series [2] and in series [3] was at least 500 nM in each case. Besides, the inhibition at 2 µM in series [4] (2000 nM) fell in the range of 30 to 50%.

In the case of `CCn1c2ccccc2c2cc(Nc3cc(C)nc(Cl)n3)ccc21` [HV-118, (2-Chloro-6-methyl-pyrimidin-4-yl)-(9-ethyl-9H-carbazol-3-yl)-amine], in the series on Akt (both MDA-MB-231 and MDA-MB-435, 100 and 200 nM), the “inhibition of Akt phosphorylation” value is reported as 40-60%. Further, the “fold increase in caspase 3 activity” value with caspase 3 (MDA-MB-231, 48 h, 100 and 200 nM) is 1.6-1.8 fold; in the series with caspase 3 (MDA-MB-435, 72 h, 'the same level' as in MDA-MB-231) it was 1.6-1.8 fold. Besides, the “toxicity / effect on viability of non-cancerous mammary epithelial cells, in words” value in series [1] is “minimal effects; also recorded: minimal or no inhibition; also recorded: minimal toxicity”. The “concentration at which viability is significantly inhibited” value in series [2] and in series [3] was at least 50 nM throughout. In addition, in series [4] (100 nM), the inhibition at 0.1 µM is about 60%. Moreover, the inhibition at 0.2 µM in series [4] (200 nM) was about 80%.
